From patent publication US10584117B2, “1,3,4-oxadiazole amide derivative compound as histone deacetylase 6 inhibitor, and pharmaceutical composition containing same” (Chong Kun Dang Pharmaceutical Corp., priority 2015, dated 2020)

Target: T1, human recombinant HDAC6 (Homo sapiens, UniProt Q9UBN7)
T1 construct: purchased Calbiochem 382180
T1 sequence (Q9UBN7 1-1215): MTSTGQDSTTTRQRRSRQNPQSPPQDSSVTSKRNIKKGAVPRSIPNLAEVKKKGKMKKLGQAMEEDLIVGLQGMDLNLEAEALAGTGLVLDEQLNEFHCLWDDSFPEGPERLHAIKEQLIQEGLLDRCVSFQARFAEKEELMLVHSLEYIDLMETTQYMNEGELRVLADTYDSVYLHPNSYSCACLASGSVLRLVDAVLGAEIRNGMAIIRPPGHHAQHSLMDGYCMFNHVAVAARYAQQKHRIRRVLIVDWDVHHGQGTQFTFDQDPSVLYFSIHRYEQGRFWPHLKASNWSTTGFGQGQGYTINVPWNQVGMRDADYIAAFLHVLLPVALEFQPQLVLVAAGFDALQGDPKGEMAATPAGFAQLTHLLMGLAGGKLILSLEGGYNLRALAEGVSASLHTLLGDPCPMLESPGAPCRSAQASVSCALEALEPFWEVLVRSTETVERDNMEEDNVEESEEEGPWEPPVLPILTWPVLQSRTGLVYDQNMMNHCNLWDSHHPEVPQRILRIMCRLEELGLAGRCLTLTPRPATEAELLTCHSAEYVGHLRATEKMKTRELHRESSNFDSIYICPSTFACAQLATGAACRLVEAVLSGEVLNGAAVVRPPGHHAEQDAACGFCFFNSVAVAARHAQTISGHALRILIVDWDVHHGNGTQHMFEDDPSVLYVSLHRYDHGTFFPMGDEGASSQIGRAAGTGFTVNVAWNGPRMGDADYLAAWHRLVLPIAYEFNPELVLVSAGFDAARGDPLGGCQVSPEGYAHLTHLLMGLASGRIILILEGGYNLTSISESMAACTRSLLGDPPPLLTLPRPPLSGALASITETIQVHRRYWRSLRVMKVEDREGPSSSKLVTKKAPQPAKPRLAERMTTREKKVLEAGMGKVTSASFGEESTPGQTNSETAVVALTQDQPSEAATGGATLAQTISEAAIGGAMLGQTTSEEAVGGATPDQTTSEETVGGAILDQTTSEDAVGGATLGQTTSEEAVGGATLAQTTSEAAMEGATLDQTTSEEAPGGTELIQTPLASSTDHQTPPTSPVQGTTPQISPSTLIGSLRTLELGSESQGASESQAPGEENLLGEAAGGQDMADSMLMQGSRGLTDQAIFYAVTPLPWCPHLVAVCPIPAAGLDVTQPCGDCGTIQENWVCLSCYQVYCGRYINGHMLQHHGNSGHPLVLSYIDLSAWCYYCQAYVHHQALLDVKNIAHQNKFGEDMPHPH
Assay: HDAC enzyme activity inhibition assay (HDAC6, fluorimetric kit)
Assay type: biochemical
Conditions: for HDAC6 selectivity (fold): HDAC6 versus HDAC1; for IC50: same protocol as the HDAC1 test
In short: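 Fluorimetric kit assay: human recombinant HDAC1 or HDAC6 (0.3 μg) reacted with 10 μM Fluor de Lys-SIRT1 substrate and 5-fold serially diluted compound for 60 minutes at 30° C, followed by 30 minutes of developer. Fluorescence was read at Ex 360/Em 460, and IC50 values were calculated from it.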

Compound | HDAC6 selectivity (fold) | IC50
CS(=O)(=O)N1CC(C(=O)N(Cc2ccc(-c3nnc(C(F)(F)F)o3)cc2F)c2ccccc2)C1 [Compound 11237, N-(2-fluoro-4-(5-(trifluoromethyl)-1,3,4-oxadiazol-2-yl)benzyl)-1-(methanesulfonyl)-N-phenylazetidine-3-carboxamide] | 2381 fold | 42 nM
CCC(=O)N1CC(C(=O)N(Cc2ccc(-c3nnc(C(F)F)o3)cc2F)c2ccccc2)C1 [Compound 11242, N-(4-(5-(difluoromethyl)-1,3,4-oxadiazol-2-yl)-2-fluorobenzyl)-N-phenyl-1-propionylazetidine-3-carboxamide] | 2564 fold | 39 nM
CS(=O)(=O)N1CCC(C(=O)N(Cc2ccc(-c3nnc(C(F)(F)F)o3)cc2)c2ccccc2)CC1 [Compound 11165, 1-(methylsulfonyl)-N-phenyl-N-(4-(5-(trifluoromethyl)-1,3,4-oxadiazol-2-yl)benzyl)piperidine-4-carboxamide] | 800 fold | 125 nM
CC(C)C(=O)N1CCC(C(=O)N(Cc2ccc(-c3nnc(C(F)(F)F)o3)cc2F)c2ccccc2)CC1 [Compound 11205, N-(2-fluoro-4-(5-(trifluoromethyl)-1,3,4-oxadiazol-2-yl)benzyl)-1-isobutyryl-N-phenylpiperidine-4-carboxamide] | 332 fold | 301 nM
O=C(c1ccncc1)N(Cc1ccc(-c2nnc(C(F)(F)F)o2)cc1F)c1cccc(F)c1 [Compound 11188, N-(2-fluoro-4-(5-(trifluoromethyl)-1,3,4-oxadiazol-2-yl)benzyl)-N-(3-fluorophenyl)isonicotinamide] | 935 fold | 107 nM
CCCN1CC(C(=O)N(Cc2ccc(-c3nnc(C(F)F)o3)cc2F)c2cccc(F)c2)C1 [Compound 11327, N-(4-(5-(difluoromethyl)-1,3,4-oxadiazol-2-yl)-2-fluorobenzyl)-N-(3-fluorophenyl)-1-propylazetidine-3-carboxamide] | 2041 fold | 49 nM
CC(C)N1CC(C(=O)N(Cc2ccc(-c3nnc(C(F)(F)F)o3)cc2)c2ccccc2)C1 [Compound 11142, 1-isopropyl-N-phenyl-N-(4-(5-(trifluoromethyl)-1,3,4-oxadiazol-2-yl)benzyl)azetidine-3-carboxamide] | 303 fold | 330 nM
O=C(CN1CCOCC1)N(Cc1ccc(-c2nnc(C(F)F)o2)cc1F)c1ccc(F)c(Cl)c1 [Compound 11535, N-(3-chloro-4-fluorophenyl)-N-(4-(5-(difluoromethyl)-1,3,4-oxadiazol-2-yl)-2-fluorobenzyl)-2-morpholinoacetamide] | 1163 fold | 86 nM
CCN1CCC(C(=O)N(Cc2ccc(-c3nnc(C(F)F)o3)cn2)c2cccc(F)c2)CC1 [Compound 11419, N-((5-(5-(difluoromethyl)-1,3,4-oxadiazol-2-yl)pyridin-2-yl)methyl)-1-ethyl-N-(3-fluorophenyl)piperidine-4-carboxamide] | 3333 fold | 30 nM
O=C(c1ccncc1)N(Cc1ccc(-c2nnc(C(F)F)o2)cc1F)c1ccccc1 [Compound 11110, N-(4-(5-(difluoromethyl)-1,3,4-oxadiazol-2-yl)-2-fluorobenzyl)-N-phenylisonicotinamide] | 2000 fold | 50 nM
O=C(C1CN(C(=O)C(F)(F)F)C1)N(Cc1ccc(-c2nnc(C(F)F)o2)cc1F)c1ccccc1 [Compound 11244, N-(4-(5-(difluoromethyl)-1,3,4-oxadiazol-2-yl)-2-fluorobenzyl)-N-phenyl-1-(2,2,2-trifluoroacetyl)azetidine-3-carboxamide] | 1587 fold | 63 nM
CCS(=O)(=O)N1CC(C(=O)N(Cc2ccc(-c3nnc(C(F)F)o3)cc2F)c2cccc(F)c2)C1 [Compound 11334, N-(4-(5-(difluoromethyl)-1,3,4-oxadiazol-2-yl)-2-fluorobenzyl)-1-(ethylsulfonyl)-N-(3-fluorophenyl)azetidine-3-carboxamide] | 2632 fold | 38 nM
CN1CC(C(=O)N(Cc2ccc(-c3nnc(C(F)(F)F)o3)cc2F)c2ccccc2)C1 [Compound 11232, N-(2-fluoro-4-(5-(trifluoromethyl)-1,3,4-oxadiazol-2-yl)benzyl)-1-methyl-N-phenylazetidine-3-carboxamide] | 1923 fold | 52 nM
CCC(=O)N1CCC(C(=O)N(Cc2ccc(-c3nnc(C(F)F)o3)cc2F)c2ccccc2)CC1 [Compound 11212, N-(4-(5-(difluoromethyl)-1,3,4-oxadiazol-2-yl)-2-fluorobenzyl)-N-phenyl-1-propionylpiperidine-4-carboxamide] | 1124 fold | 89 nM
O=C(c1ccncc1)N(Cc1ccc(-c2nnc(C(F)(F)F)o2)cc1F)c1ccccc1 [Compound 11109, N-(2-fluoro-4-(5-(trifluoromethyl)-1,3,4-oxadiazol-2-yl)benzyl)-N-phenylisonicotinamide] | 1818 fold | 55 nM
CCN1CC(C(=O)N(Cc2ccc(-c3nnc(C(F)F)o3)cc2F)c2cccc(F)c2)C1 [Compound 11326, N-(4-(5-(difluoromethyl)-1,3,4-oxadiazol-2-yl)-2-fluorobenzyl)-1-ethyl-N-(3-fluorophenyl)azetidine-3-carboxamide] | 1754 fold | 57 nM
CS(=O)(=O)N1CC(C(=O)N(Cc2ccc(-c3nnc(C(F)F)o3)cc2F)c2ccccc2)C1 [Compound 11245, N-(4-(5-(difluoromethyl)-1,3,4-oxadiazol-2-yl)-2-fluorobenzyl)-1-(methylsulfonyl)-N-phenylazetidine-3-carboxamide] | 2128 fold | 47 nM
NC(=O)[C@@H]1CCCN1CC(=O)N(Cc1ccc(-c2nnc(C(F)F)o2)cc1F)c1ccc(F)c(Cl)c1 [Compound 11538, (S)-1-(2-((3-chloro-4-fluorophenyl) (4-(5-(difluoromethyl)-1,3,4-oxadiazol-2-yl)-2-fluorobenzyl)amino)-2-oxoethyl)pyrrolidine-2-carboxamide] | 1587 fold | 63 nM
O=C(C1CCN(C(=O)C(F)(F)F)CC1)N(Cc1ccc(-c2nnc(C(F)(F)F)o2)cc1)c1ccccc1 [Compound 11164, N-phenyl-1-(2,2,2-trifluoroacetyl)-N-(4-(5-(trifluoromethyl)-1,3,4-oxadiazol-2-yl)benzyl)piperidine-4-carboxamide] | 298 fold | 336 nM
CC(C)C(=O)N1CCC(C(=O)N(Cc2ccc(-c3nnc(C(F)(F)F)o3)cc2)c2ccccc2)CC1 [Compound 11163, 1-isobutyryl-N-phenyl-N-(4-(5-(trifluoromethyl)-1,3,4-oxadiazol-2-yl)benzyl)piperidine-4-carboxamide] | 452 fold | 221 nM
CS(=O)(=O)N1CC(C(=O)N(Cc2ccc(-c3nnc(C(F)F)o3)cc2F)c2cccc(F)c2)C1 [Compound 11333, N-(4-(5-(difluoromethyl)-1,3,4-oxadiazol-2-yl)-2-fluorobenzyl)-N-(3-fluorophenyl)-1-(methylsulfonyl)azetidine-3-carboxamide] | 3448 fold | 29 nM
CC(C)CC(=O)N(Cc1ccc(-c2nnc(C(F)F)o2)cc1F)c1cccc(F)c1 [Compound 11358, N-(4-(5-(difluoromethyl)-1,3,4-oxadiazol-2-yl)-2-fluorobenzyl)-N-(3-fluorophenyl)-3-methylbutanamide] | 847 fold | 118 nM
CC(C)N1CC(C(=O)N(Cc2ccc(-c3nnc(C(F)F)o3)cc2F)c2ccccc2)C1 [Compound 11240, N-(4-(5-(difluoromethyl)-1,3,4-oxadiazol-2-yl)-2-fluorobenzyl)-1-isopropyl-N-phenylazetidine-3-carboxamide] | 2439 fold | 41 nM
